Earlier results, collected in patent publication US20120035207A1, “Use of GABAA Receptor Agonists for the Treatment of Hearing, Vestibular and Attention Disorders, Intention Tremor and Restless Leg Syndrome” (priority 2003, published 2012).

Target: T1, a4β3δ receptor (Homo sapiens, UniProt P28472+P48169)
T1 construct: host or cells: mouse L(-tk) cells stably expressing the α4β3δ receptor (Brown et al; Adkins et al.)
Details: reported by Brown et al, British J. Pharmacol., 136, 965-74 (2002)

T1 sequence (P48169 36-554): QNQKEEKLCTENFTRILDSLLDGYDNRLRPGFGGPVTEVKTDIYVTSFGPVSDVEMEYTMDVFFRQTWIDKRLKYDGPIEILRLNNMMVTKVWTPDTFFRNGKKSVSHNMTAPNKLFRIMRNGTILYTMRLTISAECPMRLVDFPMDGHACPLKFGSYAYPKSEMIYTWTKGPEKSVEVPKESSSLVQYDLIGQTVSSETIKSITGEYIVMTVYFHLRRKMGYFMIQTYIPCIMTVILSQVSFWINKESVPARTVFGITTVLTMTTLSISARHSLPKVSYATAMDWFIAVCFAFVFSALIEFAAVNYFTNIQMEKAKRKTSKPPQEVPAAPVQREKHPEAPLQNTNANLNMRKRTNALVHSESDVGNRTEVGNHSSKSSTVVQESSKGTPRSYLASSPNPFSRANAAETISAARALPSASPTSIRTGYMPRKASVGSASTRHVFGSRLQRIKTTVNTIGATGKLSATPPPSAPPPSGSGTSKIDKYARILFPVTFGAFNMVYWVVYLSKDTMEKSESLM
T1 sequence (P28472 26-473): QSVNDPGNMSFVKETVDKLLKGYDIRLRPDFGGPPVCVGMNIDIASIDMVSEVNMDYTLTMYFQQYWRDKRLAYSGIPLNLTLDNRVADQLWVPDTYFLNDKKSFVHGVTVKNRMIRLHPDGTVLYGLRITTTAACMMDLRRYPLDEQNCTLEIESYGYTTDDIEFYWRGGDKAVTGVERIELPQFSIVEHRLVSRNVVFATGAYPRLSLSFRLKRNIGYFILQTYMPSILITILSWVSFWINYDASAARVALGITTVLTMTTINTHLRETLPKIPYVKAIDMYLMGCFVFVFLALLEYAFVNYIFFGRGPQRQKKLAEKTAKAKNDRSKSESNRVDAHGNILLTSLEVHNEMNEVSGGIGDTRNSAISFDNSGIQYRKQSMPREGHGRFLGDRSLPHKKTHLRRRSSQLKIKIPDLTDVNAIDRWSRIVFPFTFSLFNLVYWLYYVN
T1 sequence (O14764 17-452 partner limits assumed): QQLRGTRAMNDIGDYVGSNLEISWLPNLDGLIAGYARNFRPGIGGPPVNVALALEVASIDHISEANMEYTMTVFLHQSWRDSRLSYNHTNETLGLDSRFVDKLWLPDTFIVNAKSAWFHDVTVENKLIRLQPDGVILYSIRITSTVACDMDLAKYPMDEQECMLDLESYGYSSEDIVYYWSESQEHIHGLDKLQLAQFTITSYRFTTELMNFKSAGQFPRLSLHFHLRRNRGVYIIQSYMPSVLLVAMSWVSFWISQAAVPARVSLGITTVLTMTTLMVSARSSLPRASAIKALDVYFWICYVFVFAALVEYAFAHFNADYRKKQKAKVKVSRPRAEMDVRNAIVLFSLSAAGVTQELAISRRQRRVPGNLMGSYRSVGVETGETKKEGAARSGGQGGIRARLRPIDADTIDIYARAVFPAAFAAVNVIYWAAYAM

## Oc1noc2c1CCNC2 [Gaboxadol, 4,5,6,7-tetrahydroisoxazolo[5,4-c]pyridin-3-ol]
  agonist activity at the a4β3δ receptor: potent agonist
